Assay results: US20080299538A1, “Pathogen Inactivation of Whole Blood” (CARIDIANBCT BIOTECHNOLOGIES, LLC, priority 2003, published 2008)

Key:
white blood cells (WBCs) [1] = experiment: Cytokine production in response to LPS (Cytometric Bead Assay); conditions: LPS, inflammatory cytokines
white blood cells (WBCs) [2] = experiment: WBC proliferation in response to anti-CD3/CD28 (thymidine incorporation); conditions: for % inhibition of proliferation: CD3/28
white blood cells (WBCs) [3] = experiment: Cytokine production in response to anti-CD3/CD28 (Cytometric Bead Assay)
[4] = anti-CD3/28, 33 J/mlRBC and above, compared to untreated cells
[5] = anti-CD3/28, TH1/TH2 cytokines, 22 J/mlRBC
[6] = anti-CD3/28, TH1/TH2 cytokines, 33 J/mlRBC
[7] = anti-CD3/28, TH1/TH2 cytokines, 44 J/mlRBC
[8] = anti-CD3/28, inflammatory cytokines, 22 J/mlRBC
[9] = anti-CD3/28, inflammatory cytokines, 33 J/mlRBC
[10] = anti-CD3/28, inflammatory cytokines, 44 J/mlRBC

## Cc1cc2nc3c(=O)[nH]c(=O)nc-3n(C[C@H](O)[C@H](O)[C@H](O)CO)c2cc1C [riboflavin, 7,8-dimethyl-10-ribityl isoalloxazine]
White blood cells (WBCs) [1]; 22 J/mlRBC
  % inhibition of IL-1β production: 68 ± 19%
  % inhibition of IL-6 production: 84 ± 8%
  % inhibition of IL-8 production: 85 ± 8%
  % inhibition of IL-10 production: 63 ± 21%
  % inhibition of TNFα production: 54 ± 35%
White blood cells (WBCs) [1]; 33 J/mlRBC
  % inhibition of IL-1β production: 91 ± 8%
  % inhibition of IL-6 production: 96 ± 3%
  % inhibition of IL-8 production: 96 ± 4%
  % inhibition of IL-10 production: 94 ± 5%
  % inhibition of TNFα production: 92 ± 8%
White blood cells (WBCs) [1]; 44 J/mlRBC
  % inhibition of IL-1β production: 98 ± 3%
  % inhibition of IL-6 production: 99 ± 1%
  % inhibition of IL-8 production: 99 ± 1%
  % inhibition of IL-10 production: 99 ± 1%
  % inhibition of TNFα production: 98 ± 2%
White blood cells (WBCs) [2]; 22 J/mlRBC
  % inhibition of proliferation: 93 ± 2%
White blood cells (WBCs) [2]; 33 J/mlRBC
  % inhibition of proliferation: 99 ± 0%
White blood cells (WBCs) [2]; 44 J/mlRBC
  % inhibition of proliferation: 99 ± 0%
White blood cells (WBCs) [2]; plate-bound anti-CD3 plus anti-CD28 antibodies, 33 J/mlRBC and above, 3 days of incubation
  induced proliferation of treated WBCs: no detectable induced proliferation
White blood cells (WBCs) [3]
  inflammatory cytokine production in response to anti-CD3/28 antibodies: significantly reduced
White blood cells (WBCs) [3]; all energies tested
  TH1/TH2 cytokine production induced by anti-CD3/28 stimulation: significantly reduced
White blood cells (WBCs) [3]; all energies tested, with the exception of IL-4 and IL-8 at 22 J/mlRBC
  cytokine production in response to anti-CD3/anti-CD28 antibodies blocked: > 90%
White blood cells (WBCs) [3]; [4]
  inhibition of IFN-γ production: > 90%
  inhibition of IL-2 production: > 90%
  inhibition of TNF-α production: > 90%
White blood cells (WBCs) [3]; [5]
  % inhibition of IFN-γ production: 99 ± 1%
  % inhibition of IL-2 production: 91 ± 7%
  % inhibition of IL-4 production: 84%
  % inhibition of IL-5 production: 94 ± 3%
  % inhibition of IL-10 production: 99 ± 1%
  % inhibition of TNFα production: 92 ± 15%
White blood cells (WBCs) [3]; [6]
  % inhibition of IFN-γ production: 100 ± 0%
  % inhibition of IL-2 production: 99 ± 1%
  % inhibition of IL-4 production: 95 ± 3%
  % inhibition of IL-5 production: 99 ± 1%
  % inhibition of IL-10 production: 100 ± 0%
  % inhibition of TNFα production: 99 ± 1%
White blood cells (WBCs) [3]; [7]
  % inhibition of IFN-γ production: 100 ± 0%
  % inhibition of IL-2 production: 100 ± 0%
  % inhibition of IL-4 production: 97 ± 2%
  % inhibition of IL-5 production: 99 ± 1%
  % inhibition of IL-10 production: 100 ± 0%
  % inhibition of TNFα production: 100 ± 0%
White blood cells (WBCs) [3]; [8]
  % inhibition of IL-1β production: 98 ± 2%
  % inhibition of IL-6 production: 99 ± 2%
  % inhibition of IL-8 production: 89%
  % inhibition of IL-10 production: 99 ± 1%
  % inhibition of IL-12 p70 production: 98 ± 4%
  % inhibition of TNFα production: 90 ± 12%
White blood cells (WBCs) [3]; [9]
  % inhibition of IL-1β production: 100 ± 0%
  % inhibition of IL-6 production: 100 ± 0%
  % inhibition of IL-8 production: 98 ± 2%
  % inhibition of IL-10 production: 100 ± 0%
  % inhibition of IL-12 p70 production: 99 ± 2%
  % inhibition of TNFα production: 100 ± 0%
White blood cells (WBCs) [3]; [10]
  % inhibition of IL-1β production: 100 ± 0%
  % inhibition of IL-6 production: 100 ± 0%
  % inhibition of IL-8 production: 100 ± 0%
  % inhibition of IL-10 production: 100 ± 0%
  % inhibition of IL-12 p70 production: 97 ± 4%
  % inhibition of TNFα production: 100 ± 0%
